Tested on: HCV replicon RNA-containing Huh7 cells (clone A cells)
Test: HCV replicon assay (replicon RNA by RT-PCR, ΔCt HCV, EC90)
Format: cell-based
Settings: Hepatitis C virus, Huh-7, 96 h; for log reduction at 50 µM: read-out: Log10 Reduction at 50 μM
Experimental: HCV replicon assay. HCV replicon RNA-containing Huh7 cells (clone A cells; Apath, LLC, St. Louis, Mo.) were kept at exponential growth in Dulbecco's modified Eagle's medium (high glucose) containing 10% fetal bovine serum, 4 mM L-glutamine and 1 mM sodium pyruvate, 1×nonessential amino acids, and G418 (1,000 μg/ml). Antiviral assays were performed in the same medium without G418. Cells were seeded in a 96-well plate at 1,500 cells per well, and test compounds were added immediately after seeding. Incubation time 4 days. At the end of the incubation step, total cellular RNA was isolated (RNeasy 96 kit; Qiagen). Replicon RNA and an internal control (TaqMan rRNA control reagents; Applied Biosystems) were amplified in a single-step multiplex RT-PCR protocol as recommended by the manufacturer. The HCV primers and probe were designed with Primer Express software (Applied Biosystems) and covered highly conserved 5′-untranslated region (UTR) sequences (sense, 5′-AGCCATGGCGTTAGTA(T)GAGTGT-3′ (SEQ ID NO: 1), and antisense, 5′-TTCCGCAGACCACTATGG-3′ (SEQ ID NO: 2); probe, 5′-FAM-[…]-TAMRA-3′ (SEQ ID NO: 3)).
To express the antiviral effectiveness of a compound, the threshold RT-PCR cycle of the test compound was subtracted from the average threshold RT-PCR cycle of the no-drug control (ΔCtHCV). A ΔCt of 3.3 equals a 1-log 10 reduction (equal to the 90% effective concentration [EC90]) in replicon RNA levels. The cytotoxicity of the test compound could also be expressed by calculating the ΔCtrRNA values. The ΔΔCt specificity parameter could then be introduced (ΔCtHCV−ΔCtrRNA), in which the levels of HCV RNA are normalized for the rRNA levels and calibrated against the no-drug control.

Structure (SMILES)	EC90 [nM]	log reduction at 50 µM
COC(=O)[C@H](C)NP(=O)(OC[C@H]1O[C@@H](n2ccc(=O)[nH]c2=O)[C@](C)(F)[C@@H]1O)Oc1ccccc1 (stereo partly drawn) [Example 5, 2′-Deoxy-2′-fluoro-2′-C-methyluridine 5′-(phenylmethoxy-alanyl phosphate)]	3000	1.21
COC(=O)[C@@H](NP(=O)(OC[C@H]1O[C@@H](n2ccc(=O)[nH]c2=O)[C@](C)(F)[C@@H]1O)Oc1ccccc1)C(C)C (stereo partly drawn) [Example 6, 2′-Deoxy-2′-fluoro-2′-C-methyluridine 5′-(phenylmethoxy-valyl phosphate)]	–	0.45
COC(=O)[C@@H](NP(=O)(OC[C@H]1O[C@@H](n2ccc(=O)[nH]c2=O)[C@](C)(F)[C@@H]1O)Oc1ccc(Br)cc1)C(C)C (stereo partly drawn) [Example 7, 2′-Deoxy-2′-fluoro-2′-C-methyluridine 5′-(4-bromophenylmethoxy-valyl phosphate)]	–	-0.31
COC(=O)[C@H](C)NP(=O)(OC[C@H]1O[C@@H](n2ccc(=O)[nH]c2=O)[C@](C)(F)[C@@H]1O)Oc1ccc(Br)cc1 (stereo partly drawn) [Example 8, 2′-Deoxy-2′-fluoro-2′-C-methyluridine 5′-(4-bromophenylmethoxy-alanyl phosphate)]	2110	1.48
COC(=O)[C@H](C)NP(=O)(OC[C@H]1O[C@@H](n2ccc(N)nc2=O)[C@](C)(F)[C@@H]1O)Oc1ccccc1 (stereo partly drawn) [Example 10, 2′-Deoxy-2′-fluoro-2′-C-methylcytidine 5′-(phenylmethoxy-alanyl phosphate)]	19200	1.25
COC(=O)[C@@H](NP(=O)(OC[C@H]1O[C@@H](n2ccc(N)nc2=O)[C@](C)(F)[C@@H]1O)Oc1ccc(Br)cc1)C(C)C (stereo partly drawn) [Example 11, 2′-Deoxy-2′-fluoro-2′-C-methylcytidine 5′-(4-bromophenylmethoxy-valyl phosphate)]	–	0.55
COC(=O)[C@@H](NP(=O)(OC[C@H]1O[C@@H](n2ccc(N)nc2=O)[C@](C)(F)[C@@H]1O)Oc1ccccc1)C(C)C (stereo partly drawn) [Example 12, 2′-deoxy-2′-fluoro-2′-C-methylcytidine 5′-(phenylmethoxy-valyl phosphate)]	–	-0.31
COC(=O)CNP(=O)(OC[C@H]1O[C@@H](n2ccc(=O)[nH]c2=O)[C@](C)(F)[C@@H]1O)Oc1ccccc1 (stereo partly drawn) [compound 15]	860	–
CC(C)OC(=O)[C@H](C)NP(=O)(OC[C@H]1O[C@@H](n2ccc(=O)[nH]c2=O)[C@](C)(F)[C@@H]1O)Oc1ccccc1 (stereo partly drawn) [compound 25]	390	2.22
CCOC(=O)[C@H](C)NP(=O)(OC[C@H]1O[C@@H](n2ccc(=O)[nH]c2=O)[C@](C)(F)[C@@H]1O)Oc1ccc(F)cc1 (stereo partly drawn) [compound 27]	660	2.25
CC(C)OC(=O)[C@H](C)NP(=O)(OC[C@H]1O[C@@H](n2ccc(=O)[nH]c2=O)[C@](C)(F)[C@@H]1O)Oc1ccc(F)cc1 (stereo partly drawn) [compound 28]	750	2.16
CC(C)OC(=O)[C@H](C)NP(=O)(OC[C@H]1O[C@@H](n2ccc(=O)[nH]c2=O)[C@](C)(F)[C@@H]1O)Oc1ccccc1Cl (stereo partly drawn) [compound 36]	21900	1.64
CC(C)OC(=O)[C@H](C)NP(=O)(OC[C@H]1O[C@@H](n2ccc(=O)[nH]c2=O)[C@](C)(F)[C@@H]1O)Oc1ccc(Cl)cc1 (stereo partly drawn) [compound 39]	470	1.78
C[C@H](NP(=O)(OC[C@H]1O[C@@H](n2ccc(=O)[nH]c2=O)[C@](C)(F)[C@@H]1O)Oc1ccccc1)C(=O)OC1CCCCC1 (stereo partly drawn) [compound 49]	126	2.69
CCCCOC(=O)[C@H](C)NP(=O)(OC[C@H]1O[C@@H](n2ccc(=O)[nH]c2=O)[C@](C)(F)[C@@H]1O)Oc1ccccc1Cl (stereo partly drawn) [compound 53]	< 300	1.33
CC(C)OC(=O)[C@H](C)NP(=O)(OC[C@H]1O[C@@H](n2ccc(=O)[nH]c2=O)[C@](C)(F)[C@@H]1O)Oc1ccc(Br)cc1 (stereo partly drawn) [compound 54]	570	1.55
C[C@H](NP(=O)(OC[C@H]1O[C@@H](n2ccc(=O)[nH]c2=O)[C@](C)(F)[C@@H]1O)Oc1ccc(F)cc1)C(=O)OC1CCCCC1 (stereo partly drawn) [compound 55]	< 300	2.38
COC(=O)[C@H](C)NP(=O)(OC[C@H]1O[C@@H](N2C=NC3C(NC4CCCC4)=NC(N)=NC32)[C@](C)(F)[C@@H]1O)Oc1ccccc1 (stereo partly drawn) [compound 69]	< 300	2.25
COC(=O)[C@H](C)NP(=O)(OC[C@H]1O[C@@H](N2C=NC3C(N4CCC4)=NC(N)=NC32)[C@](C)(F)[C@@H]1O)Oc1ccccc1 (stereo partly drawn) [compound 70]	< 300	2.25

Source: US10183037B2, “Nucleoside phosphoramidate prodrugs” (Gilead Pharmasset LLC, priority 2007, dated 2019)
